# According to patent US20260294770A1, “FORMULATIONS OF NARINGENIN” (DEBUT BIOTECHNOLOGY, INC., priority 2023, published 2026):
# Tests used:
# [1] = Glycation inhibition assay; format: biochemical; conditions: for IC50 glycation inhibition: calculated
# Method: The assay was conducted to evaluate the glycation inhibition activity of compositions comprising naringenin.
# Nonenzymatic glycation can occur when glucose reacts with proteins, forming a Schiff base intermediate that subsequently undergoes Amadori rearrangement to form glycosylated proteins, when they react with skin proteins to form Advanced Glycation End products (AGE). AGE formation can result in loss of skin elasticity and impaired cellular function. The glycation inhibition ability of a compound is measured by change in fluorescence m relative to solvent control.
# [2] = test system: IL-6; assay: IL-6 concentration in stimulated (stressed) normal human epidermal keratinocytes (ELISA); format: cell-based; conditions: for IL-6 concentration: LPS + Poly:IC stressed NHEK, stimulated control 1124.6
# Text: Normal Human Epidermal Keratinocytes (NHEK) were stressed with a cocktail of lipopolysaccharide (LPS) and Polyinosinic-polycytidylic acid sodium salt (Poly:IC), external aggressors capable of inducing an inflammatory response. Stressed cells were subsequently treated with test articles and reduction in inflammatory markers was measuring by ELISA. Tables 19 and 20, provided below, discloses data for TNFα and IL-6 concentrations, respectively, in stressed normal human epidermal keratinocytes.
# [3] = test system: DKK1; assay: Downregulation of gene expression and/or activity, 1% naringenin: DKK1; conditions: negative = downregulation
# Text: (§1) In certain embodiments, administration of a composition comprising naringenin leads to up-regulation of LCE5A, KRT77, ALOXE3, KRT1, HPGD, MUCL1, CASP14, WFDC12, KRT10, DNASE1L2, IL37, SERPINB12, HAL, UPK1A, CALML5, LCE2B, and/or MIR205. In certain embodiments, administration of a composition comprising naringenin leads to down-regulation of CCL11, CSF2, IL23A, IL11, BMP6, IL13RA2, C2CD4A, NR4A2, C2CD4B, FGF2, FARP4, GDF15, THBS1, HSPA1A, PTGS2, and/or DKK1. Tables 10 and 11 provide data for upregulation and downregulation respectively of certain genes after administration of compositions comprising 1% naringenin.
# [4] = test system: ALOXE3; assay: Upregulation of gene expression and/or activity, 1% naringenin: ALOXE3
# Text: as §1
# Arachidonate lipoxygenase 3 (ALOXE3) is involved in formation of epidermis lipids. In particular, ALOXE3 helps add an oxygen molecule to certain fatty acids to produce substances called fatty acid hydroperoxides. The enzyme encoded by ALOXE3 is a hydroperoxide isomerase that synthesizes a unique type of epoxy alcohol (8R-hydroxy-11R,12R-epoxyeicosa-5Z,9E,14Z-trienoic acid) from 12R-hydroperoxyeicosatetraenoic acid (12R-HPETE). This epoxy alcohol can activate the nuclear receptor peroxisome proliferator-activated receptor alpha (PPARalpha), which is implicated in epidermal differentiation. Loss of function of the enzyme encoded by this gene results in ichthyosis, implicating the function of this gene in the differentiation of human skin. […]
# [5] = DPPH antioxidant activity assay (organic medium); format: biochemical; conditions: for % Radical Inhibition: organic medium
# Text: The 2,2-diphenyl-1-picrylhydrazyl (DPPH) antioxidant assay is designed to evaluate the antioxidant activity of compositions comprising naringenin in an organic medium.
# 2,2-diphenyl-1-picrylhydrazyl (DPPH) is a stable free radical used to evaluate free radical scavenging capacity of a material. In the presence of an antioxidant DPPH is reduced, resulting in the formation of a colorless solution. Reduction of absorbance at 517 nm is standardized to solvent control as an indication of DPPH scavenging.
# [6] = test system: PTGS2; assay: Downregulation of gene expression and/or activity, 1% naringenin: PTGS2
# Text: as §1
# Prostaglandin-endoperoxide synthase 2 (PTGS2) plays a role in the production of signaling molecules that are involved in the inflammatory response. For example, PTGS2 is involved in the conversion of arachidonic acid to prostaglandin H2, an important precursor of prostacyclin, which is expressed in inflammation. In certain embodiments, downregulation of PTGS2 leads to reduction in production of signaling molecules leading to inflammation. Thus, the downregulation of PTGS2 leads to reduced inflammation. In certain embodiments, the administration of composition comprising naringenin results in at least about 2 to about 10-fold downregulation of expression and/or activity of PTGS2. […]
# [7] = test system: FABP4; assay: Downregulation of gene expression and/or activity, 1% naringenin: FABP4
# Text: as §1
# Fatty acid binding protein 4 (FABP4) plays a role in metabolic inflammation from the fat tissue. FABP4 acts at the interface of metabolic and inflammatory pathways in adipocytes and macrophages and plays important roles in the development of insulin resistance, diabetes mellitus, and atherosclerosis. In certain embodiments, downregulation of FABP4 leads to reduced metabolic inflammation from the fat tissue signaling. In certain embodiments, the administration of composition comprising naringenin results in at least about 2 to about 10-fold downregulation of expression and/or activity of FABP4. In certain embodiments, the administration of composition comprising naringenin results in at least about five (5) fold downregulation of expression and/or activity of FABP4.
# [8] = test system: IL11; assay: Downregulation of gene expression and/or activity, 1% naringenin: IL11
# Text: as §1
# Interleukin 11 (IL11) plays a role in the inflammatory pathway and in certain pathways that may be involved in cancer. In certain embodiments of the invention, downregulation of IL11 leads to an anti-inflammatory activity and/or anticancer activity. In certain embodiments, the administration of composition comprising naringenin results in at least about 10 to about 20-fold downregulation of expression and/or activity of IL11. In certain embodiments, the administration of composition comprising naringenin results in at least about ten (10) fold downregulation of expression and/or activity of IL11.
smiles,measurement,setting,value
"O=C1C[C@@H](c2ccc(O)cc2)Oc2cc(O)cc(O)c21 [naringenin, (2S)-5,7-Dihydroxy-2-(4-hydroxyphenyl)-2,3-dihydro-4H-1-benzopyran-4-one]",Lowest concentration inhibiting glycation,[1],≤ 0.002 % w/w
same,% Enzyme Inhibition (glycation inhibition),[1]; 0.008 % w/w naringenin,27.87%
same,% Enzyme Inhibition (glycation inhibition),[1]; 0.016 % w/w naringenin,45.49%
same,% Enzyme Inhibition (glycation inhibition),[1]; 0.031 % w/w naringenin,60.22%
same,% Enzyme Inhibition (glycation inhibition),[1]; 0.0625 % w/w naringenin,69.05%
same,IC50 glycation inhibition,[1],0.019 % w/w
same,IC50 glycation inhibition,[1]; Example 7,0.019%
same,IL-6 concentration,"[2]; 0.0001% naringenin, p-value 0.0001",395.8 pg/mL
same,IL-6 concentration,"[2]; 0.0045% naringenin, p-value 0.0029",42.0 pg/mL
same,IL-6 concentration,"[2]; 0.007% naringenin, p-value 0.0030",50.0 pg/mL
same,IL-6 concentration,"[2]; 0.01% naringenin, p-value 0.0035",76.6 pg/mL
same,inhibition at 0.0001 %,"[2]; Homo sapiens, NHEK, 0.0001% naringenin, vs stimulated control, p-value 0.0001, read-out: IL-6 % Reduction vs Treated",64.8%
same,inhibition at 0.0045 %,"[2]; Homo sapiens, NHEK, 0.0045% naringenin, vs stimulated control, p-value 0.0029, read-out: IL-6 % Reduction vs Treated",96.3%
same,inhibition at 0.007 %,"[2]; Homo sapiens, NHEK, 0.007% naringenin, vs stimulated control, p-value 0.0030, read-out: IL-6 % Reduction vs Treated",95.6%
same,inhibition at 0.01 %,"[2]; Homo sapiens, NHEK, 0.01% naringenin, vs stimulated control, p-value 0.0035, read-out: IL-6 % Reduction vs Treated",93.2%
same,Reduction of IL-6 (in words),[2]; stressed keratinocytes,to non-stressed levels
same,Fold-increase (downregulation table) DKK1,[3],−5 fold
same,Fold-increase in expression and/or activity of ALOXE3,[4],~12 fold
same,% Radical Inhibition,[5]; 0.50 % w/w naringenin,18.82%
same,% Radical Inhibition,[5]; 1.00 % w/w naringenin,28.44%
same,% Radical Inhibition,[5]; 2.00 % w/w naringenin,46.82%
same,Lowest concentration with antioxidant activity,[5]; organic solvent systems,≤ 0.2 % w/w
same,fold downregulation in expression and/or activity of PTGS2,[6],~6 fold
same,Fold-increase (downregulation table) PTGS2,[6]; negative = downregulation,−6 fold
same,fold downregulation in expression and/or activity of FABP4,[7],~7 fold
same,Fold-increase (downregulation table) FABP4,[7]; negative = downregulation,−7 fold
same,fold downregulation in expression and/or activity of IL11,[8],~14 fold
